Test results taken from patent US20160106837A1, “COMBINATION OF CD37 ANTIBODIES WITH CHLORAMBUCIL” (BOEHRINGER INGELHEIM INTERNATIONAL GMBH, priority 2013, published 2016).
“Also recorded” adds a separate entry of the source.

Tests used:
[1] = Body weight / tolerability in DOHH2 tumor-bearing C.B-17 scid mice
[2] = tested on: human follicular lymphoma DOHH2; assay: Subcutaneous xenograft model of the human follicular lymphoma DOHH2 in C.B-17 scid mice: tumor growth; type: in vivo

O=C(O)CCCc1ccc(N(CCCl)CCCl)cc1 [chlorambucil, 4-[Bis(2-chloroethy)amino]benzenebutaonic acid]
body weight loss during first week ([1]; after one week / first 7 days of the study): 13.4%
Weight change ([1]; median body weight change, day 16): −5.4%
CR (complete tumor regression) ([2]; day 16): 0 x/7
PR (partial tumor regression) ([2]; day 16): 0 x/7
tumor regression (in words) ([2]; day 16): tumor regressions were not observed
TGI ([2]; median, day 16, A2 10 mg/kg i.p. d1,5,8,12,15, chlorambucil 6 mg/kg i.p. d2,6): 71%
tumor growth inhibition (in words) ([2]; vs controls): moderate but significant inhibition of tumor growth; also recorded: moderate but significant efficacy
